Measurements reported in patent US7235577B1 (priority 2000, dated 2007).

Experiments:
[1] = Hydrolytic stability by HPLC; conditions: for stability against hydrolysis: over 72 h
Method: A Waters 590 liquid chromatograph with a Waters 746 integrator and a Waters 486 UVN is detector, and a 25 cm Lichrospher RP18 column (5-μM particle size) was used. The mobile phase consisted of K2HPO4 25 mM, KH2PO4 30 mM, methanol at 262:13:725. The chromatographic separation was performed at 20° C. with a flow rate of 1.0 ml/min, the absorbance of the elluent was monitored at 210 nm.
Hydrolysis profiles (10 μM compound with 20% acetonitrile) were carried out in Soerensen phosphate buffer (pH 7.4 and pH 5.0) in a total volume of 10 ml. 100 μl samples were collected 0, 1, 2, 3, 4, 5, 24, 48 and 72 hours after incubation, with shaking, in a waterbath at 37° C. and manually injected into the HPLC over Rheodyne 7125 system. For profiles at pH 1.0 artificial stomach fluid (DAB 9), containing 2 g NaCl, 3,2 g pepsin and 80 ml 1 M HCL in 1.0 L of water was used. After 0, 1 and 2 hours 400 μl of sample were collected and extracted three times with 500 μl of ethyl ether by vortexing. The combined extracts were than evaporated to dryness by passing nitrogen through the solution. The residue was than dissolved in 400 μl of mobile phase of which […] were injected in the HPLC.

[2] = test system: COS-7 cells; assay: In vitro toxicity, propidium iodide uptake, 48 h; type: cell-based, African green monkey
Method: (§1) The in vitro toxicity was performed as follows.

[3] = target: T1, hKv1.4 (Homo sapiens, UniProt P22459); assay: Selectivity patch clamp, LTK cells expressing hKv1.4; type: cell-based
T1 construct: expressed in transfected cells; host or cells: LTK (dexamethasone-induced)
T1 sequence (P22459 whole entry): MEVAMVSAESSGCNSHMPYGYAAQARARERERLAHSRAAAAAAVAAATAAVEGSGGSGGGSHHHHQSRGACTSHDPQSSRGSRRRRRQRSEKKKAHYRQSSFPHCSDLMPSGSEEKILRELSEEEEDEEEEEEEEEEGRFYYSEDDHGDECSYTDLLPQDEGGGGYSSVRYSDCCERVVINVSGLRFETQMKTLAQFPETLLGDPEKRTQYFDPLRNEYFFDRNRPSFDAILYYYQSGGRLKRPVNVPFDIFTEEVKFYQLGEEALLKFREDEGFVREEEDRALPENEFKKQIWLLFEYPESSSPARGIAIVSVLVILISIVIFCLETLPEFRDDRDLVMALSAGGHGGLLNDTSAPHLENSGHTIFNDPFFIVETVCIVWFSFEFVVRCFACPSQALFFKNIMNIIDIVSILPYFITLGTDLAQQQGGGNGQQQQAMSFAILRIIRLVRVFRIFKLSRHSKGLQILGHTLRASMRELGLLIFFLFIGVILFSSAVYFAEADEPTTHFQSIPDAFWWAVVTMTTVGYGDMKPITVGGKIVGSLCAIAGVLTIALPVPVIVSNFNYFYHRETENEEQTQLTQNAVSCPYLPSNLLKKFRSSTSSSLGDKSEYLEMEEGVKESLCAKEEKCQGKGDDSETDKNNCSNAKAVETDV
Method: (§2) L929 cells stably expressing mKv1.1, rKv1.2, mKv1.3, and mKv3.1 and MEL cells stably expressing hKv1.5 have been previously described (Grissmer 1994, Mol. Pharmacol. 45: 1227). hKv1.4 and rKv4.2 were stably expressed in LTK (HK1–7). Channel expression was induced 8–12 h before the electrophysiological experiments by 4 μM dexamethasone (Sigma). HEK-293 cells stably expressing the skeletal muscle sodium channel hSkM1 (SCN4A) were generated in the laboratory of Dr. F. Lehmann-Horn. HEK-293 cells stably expressing hSloα were obtained from Dr. Andrew Tinker (Center for Clinical Pharmacology, University College London). L929, MEL, LTK and HEK cells were maintained in DMEM containing 10% heat-inactivated fetal calf serum (Summit Biotechnology, Fort Collins, Colo.) and 250 μg/ml G418 (Life Technologies, Inc.). Rat basophilic leukemia (RBL) cells were maintained in Eagle's minimum essential medium with 2 mM L-glutamine and 10% fetal calf serum. CHO cell were maintained in F12K media (ATCC). Human leukemic Jurkat E6–1 cells were cultured in RPMI 1640 supplemented with 10% fetal calf serum and 1 mM L-glutamine. T84 cells were maintained in a 1:1 mixture of Ham's F12 medium and DMEM with 2.5 mM L-glutamine and 10% fetal calf serum.
(§3) Recordings from the Jurkat SKCa channel were made in K^+ aspartate Ringer (Na^+ was replaced by K^+) with the same internal pipette solution. […]

[4] = target: T2, rKir2.1 (Rattus norvegicus, UniProt Q64273); assay: Selectivity patch clamp, RBL inward rectifier; type: cell-based; conditions: RBL cells; slope conductance at −110 mV
T2 construct: endogenous in cells; host or cells: RBL (rat basophilic leukemia)
T2 sequence (Q64273 whole entry): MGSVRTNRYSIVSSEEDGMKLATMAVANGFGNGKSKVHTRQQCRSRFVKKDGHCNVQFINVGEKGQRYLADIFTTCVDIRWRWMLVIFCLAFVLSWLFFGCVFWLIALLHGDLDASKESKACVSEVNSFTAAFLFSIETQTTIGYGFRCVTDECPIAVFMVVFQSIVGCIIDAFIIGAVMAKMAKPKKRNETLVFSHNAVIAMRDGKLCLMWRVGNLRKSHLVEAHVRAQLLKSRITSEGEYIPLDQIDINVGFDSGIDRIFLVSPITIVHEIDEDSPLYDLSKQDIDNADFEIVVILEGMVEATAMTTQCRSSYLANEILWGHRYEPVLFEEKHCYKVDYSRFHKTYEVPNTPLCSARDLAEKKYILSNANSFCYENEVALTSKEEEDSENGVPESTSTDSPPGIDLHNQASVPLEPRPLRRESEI
Method: as §2, §3

[5] = target: T3, hKv1.5 (Homo sapiens, UniProt P22460); assay: Selectivity patch clamp, MEL cells expressing hKv1.5; type: cell-based
T3 construct: expressed in transfected cells; host or cells: MEL
T3 sequence (P22460 whole entry): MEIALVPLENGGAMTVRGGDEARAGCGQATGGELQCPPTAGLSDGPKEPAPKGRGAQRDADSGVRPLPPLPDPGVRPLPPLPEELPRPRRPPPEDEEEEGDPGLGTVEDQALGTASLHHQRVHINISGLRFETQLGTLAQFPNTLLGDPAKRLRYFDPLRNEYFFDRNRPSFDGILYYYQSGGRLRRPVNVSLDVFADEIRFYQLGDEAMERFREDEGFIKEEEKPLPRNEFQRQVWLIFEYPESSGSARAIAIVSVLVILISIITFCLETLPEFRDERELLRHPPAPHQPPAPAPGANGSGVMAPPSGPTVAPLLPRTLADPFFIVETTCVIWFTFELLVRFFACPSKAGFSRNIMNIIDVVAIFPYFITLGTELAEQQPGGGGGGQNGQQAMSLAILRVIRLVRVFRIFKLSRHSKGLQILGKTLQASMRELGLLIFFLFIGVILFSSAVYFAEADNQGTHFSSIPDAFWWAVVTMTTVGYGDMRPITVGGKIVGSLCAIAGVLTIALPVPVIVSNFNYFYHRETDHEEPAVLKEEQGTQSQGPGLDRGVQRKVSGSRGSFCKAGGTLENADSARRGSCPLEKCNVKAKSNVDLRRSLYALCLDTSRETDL
Method: as §2, §3

[6] = test system: RBL-2H3 cells; assay: In vitro toxicity, propidium iodide uptake, 48 h; type: cell-based, rat
Method: as §1

[7] = target: T4, mKv1.1 (Mus musculus, UniProt P16388); assay: Selectivity patch clamp, L929 cells expressing mKv1.1; type: cell-based
T4 construct: expressed in transfected cells; host or cells: L929
T4 sequence (P16388 whole entry): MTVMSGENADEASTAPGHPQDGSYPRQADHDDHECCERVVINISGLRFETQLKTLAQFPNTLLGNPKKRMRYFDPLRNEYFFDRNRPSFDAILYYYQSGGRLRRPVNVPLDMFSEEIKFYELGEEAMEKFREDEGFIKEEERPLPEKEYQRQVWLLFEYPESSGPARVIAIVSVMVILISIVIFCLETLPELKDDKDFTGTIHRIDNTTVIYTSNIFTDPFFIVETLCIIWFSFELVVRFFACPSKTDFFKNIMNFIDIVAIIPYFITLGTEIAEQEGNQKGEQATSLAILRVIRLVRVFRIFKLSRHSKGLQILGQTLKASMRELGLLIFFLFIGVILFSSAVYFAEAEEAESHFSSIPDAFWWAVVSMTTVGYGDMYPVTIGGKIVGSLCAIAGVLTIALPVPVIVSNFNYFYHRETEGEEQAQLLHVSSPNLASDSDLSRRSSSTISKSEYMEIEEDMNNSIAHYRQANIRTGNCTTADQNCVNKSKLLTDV
Method: as §2, §3

[8] = test system: MEL cells; assay: In vitro toxicity, propidium iodide uptake, 48 h; type: cell-based, murine
Method: as §1

[9] = test system: L929 cells; assay: In vitro toxicity, propidium iodide uptake, 48 h; type: cell-based, murine
Method: as §1

[10] = target: T5, rKv1.2 (Rattus norvegicus, UniProt P63142); assay: Selectivity patch clamp, L929 cells expressing rKv1.2; type: cell-based
T5 construct: expressed in transfected cells; host or cells: L929
T5 sequence (P63142 whole entry): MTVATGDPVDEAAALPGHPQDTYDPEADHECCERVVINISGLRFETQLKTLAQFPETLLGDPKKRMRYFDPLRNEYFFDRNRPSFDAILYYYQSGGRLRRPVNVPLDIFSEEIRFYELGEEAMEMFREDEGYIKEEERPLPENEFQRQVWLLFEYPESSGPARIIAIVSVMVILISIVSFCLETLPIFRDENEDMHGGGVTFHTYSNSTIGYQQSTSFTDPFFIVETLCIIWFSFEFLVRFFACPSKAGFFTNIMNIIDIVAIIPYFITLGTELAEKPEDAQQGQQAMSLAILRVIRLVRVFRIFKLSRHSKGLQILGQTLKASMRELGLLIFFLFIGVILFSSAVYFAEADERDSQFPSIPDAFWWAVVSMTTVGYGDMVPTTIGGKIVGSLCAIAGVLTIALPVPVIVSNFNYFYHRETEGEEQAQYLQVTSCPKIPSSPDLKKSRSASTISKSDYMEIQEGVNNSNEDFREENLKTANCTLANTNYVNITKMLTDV
Method: as §2, §3

[11] = test system: C2F3 cells; assay: In vitro toxicity, propidium iodide uptake, 48 h; type: cell-based, human
Method: as §1

[12] = test system: Jurkat E6-1 cells; assay: In vitro toxicity, propidium iodide uptake, 48 h; type: cell-based, human
Method: as §1

[13] = test system: NLF cells; assay: In vitro toxicity, propidium iodide uptake, 48 h; type: cell-based, human
Method: as §1

[14] = test system: NGP cells; assay: In vitro toxicity, propidium iodide uptake, 48 h; type: cell-based, human
Method: as §1

[15] = test system: human T-lymphocytes; assay: In vitro toxicity, propidium iodide uptake, 48 h; type: cell-based
Method: as §1

[16] = test system: ten cell lines; assay: In vitro toxicity, summary over the ten cell lines; conditions: at a concentration 100–250 times the Kd for IKCa1 channel block
Method: The in vitro toxicity was performed as follows. Jurkat E6-1, MEL, C2F3, NGP, NLF cells and human T-lymphocytes were seeded at 5×10^5 cells/ml, and L929, COS-7, CHO and RBL cells were seeded at 10^5 cells/ml in twelve-well plates. Drug (2 or 5 μM) was added in a final DMSO concentration of 0.1%. After 48 h of incubation at 37° C. with 5% CO2, cells were harvested by sucking them off the plates (suspension cells) or by trypsinization (adherent cell lines). Cells were centrifuged, resuspended in 0.5 ml PBS containing 1 μg/ml propidium iodide (PI), and red fluorescence measured on a FACScan flow cytometer after 20 min, 10^4 cells of every sample being analyzed. The percentage of dead cells was determined by their PI uptake. Two controls for every cell line (one in medium and one with 0.1% DMSO) were also analyzed.

[17] = target: Kv1.1–1.5, Kv3.1, Kv4.2, Jurkat-SKCa, BKCa, hSKM1-Na, CRAC and lymphocyte chloride channels; assay: Selectivity on other cloned and native ion channels; type: cell-based; conditions: all channels of the panel
Method: as §2, §3

[18] = logP
[19] = target: T6, rKv4.2 (Rattus norvegicus, UniProt Q63881); assay: Selectivity patch clamp, LTK cells expressing rKv4.2; type: cell-based
T6 construct: expressed in transfected cells; host or cells: LTK (dexamethasone-induced)
T6 sequence (Q63881 whole entry): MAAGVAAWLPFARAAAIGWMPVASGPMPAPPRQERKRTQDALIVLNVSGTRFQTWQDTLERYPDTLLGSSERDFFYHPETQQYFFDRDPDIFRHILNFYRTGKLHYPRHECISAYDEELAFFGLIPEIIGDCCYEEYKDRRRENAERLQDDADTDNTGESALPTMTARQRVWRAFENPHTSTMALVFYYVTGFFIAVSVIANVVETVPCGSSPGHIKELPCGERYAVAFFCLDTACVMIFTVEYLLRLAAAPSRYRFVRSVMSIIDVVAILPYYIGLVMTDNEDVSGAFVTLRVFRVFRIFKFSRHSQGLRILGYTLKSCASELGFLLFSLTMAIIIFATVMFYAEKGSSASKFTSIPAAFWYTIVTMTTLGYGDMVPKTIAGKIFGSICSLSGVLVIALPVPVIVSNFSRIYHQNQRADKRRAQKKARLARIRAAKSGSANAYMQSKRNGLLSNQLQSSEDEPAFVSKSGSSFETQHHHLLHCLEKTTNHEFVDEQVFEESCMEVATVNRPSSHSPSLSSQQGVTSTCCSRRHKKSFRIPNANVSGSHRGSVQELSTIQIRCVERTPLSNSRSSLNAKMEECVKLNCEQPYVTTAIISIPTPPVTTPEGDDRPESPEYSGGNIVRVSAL
Method: as §2, §3

[20] = test system: CF-1 BR mice; assay: ISO acute systemic toxicity study; conditions: single i.v. 0.5 mg/kg
Method: An ISO acute systemic toxicity study was performed in CF-1 BR mice (17–19 g) according to the guidelines of the United States Pharmacopeia XXII. […] Five control mice were injected with an equal volume of the vehicle. The mice were weighed at the beginning of the study and at its termination.

[21] = target: T7, Jurkat-SK (Homo sapiens, UniProt Q9H2S1); assay: Selectivity patch clamp, Jurkat SKCa channel; type: cell-based
T7 construct: endogenous in cells; host or cells: Jurkat E6-1
T7 sequence (Q9H2S1 whole entry): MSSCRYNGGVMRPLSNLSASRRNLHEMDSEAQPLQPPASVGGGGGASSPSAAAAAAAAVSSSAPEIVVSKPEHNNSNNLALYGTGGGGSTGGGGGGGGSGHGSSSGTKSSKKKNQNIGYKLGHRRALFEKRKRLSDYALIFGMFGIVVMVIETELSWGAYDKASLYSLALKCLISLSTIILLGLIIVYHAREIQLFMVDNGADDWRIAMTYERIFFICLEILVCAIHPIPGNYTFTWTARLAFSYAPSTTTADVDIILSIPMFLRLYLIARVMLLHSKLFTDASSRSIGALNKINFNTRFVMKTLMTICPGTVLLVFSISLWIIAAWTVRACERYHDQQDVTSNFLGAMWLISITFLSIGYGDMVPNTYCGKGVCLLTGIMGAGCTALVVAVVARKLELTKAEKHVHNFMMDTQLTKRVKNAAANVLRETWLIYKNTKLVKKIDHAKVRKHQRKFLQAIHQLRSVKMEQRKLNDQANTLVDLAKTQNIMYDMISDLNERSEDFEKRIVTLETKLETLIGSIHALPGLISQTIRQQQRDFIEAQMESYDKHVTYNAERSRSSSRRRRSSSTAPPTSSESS
Method: as §2, §3

With `Clc1ccccc1C(c1ccccc1)(c1ccccc1)n1cccn1` [Compound T34, 1-[(2-Chlorophenyl)diphenylmethyl]-1H-pyrazole] the half-life ([1]; artificial stomach fluid (DAB 9), pH 1) was about 45 min, the stability against hydrolysis ([1]; pH 5.0, 37° C.) was “completely stable” and the stability against hydrolysis ([1]; pH 7.4, 37° C.) was “completely stable”. For the same compound, the stability against hydrolysis ([1]; pH 10) was “completely stable”, the “percentage of dead cells (PI uptake)” value ([2]; 2 μM) was 3.6% and the “percentage of dead cells (PI uptake)” value ([2]; 5 μM) was 4.5%. For the same compound, the Kd [3] was 7.5 ± 0.41 µM, the “Block of rKir2.1” value [4] was “no effect at 10 μM” and the Kd [5] was 7 ± 0.62 µM. For the same compound, the “percentage of dead cells (PI uptake)” value ([6]; 2 μM) was 7.9%, the “percentage of dead cells (PI uptake)” value ([6]; 5 μM) was 8.8% and the Kd [7] was 9.5 ± 1 µM. The “percentage of dead cells (PI uptake)” value ([8]; 2 μM) was 6.2%, the “percentage of dead cells (PI uptake)” value ([8]; 5 μM) was 5.8% and the “percentage of dead cells (PI uptake)” value ([9]; 2 μM) was 4.6%. The “percentage of dead cells (PI uptake)” value ([9]; 5 μM) was 7.5%, the Kd [10] was 4.5 ± 0.52 µM and the “percentage of dead cells (PI uptake)” value ([11]; 2 μM) was 15.8%. For the same compound, the “percentage of dead cells (PI uptake)” value ([11]; 5 μM) was 12.8%, the “percentage of dead cells (PI uptake)” value ([12]; 2 μM) was 2.5% and the “percentage of dead cells (PI uptake)” value ([12]; 5 μM) was 3.2%. For the same compound, the “percentage of dead cells (PI uptake)” value ([13]; 2 μM) was 10.8%, the “percentage of dead cells (PI uptake)” value ([13]; 5 μM) was 10.8% and the “percentage of dead cells (PI uptake)” value ([14]; 2 μM) was 10.9%. The “percentage of dead cells (PI uptake)” value ([14]; 5 μM) was 5.9%, the “percentage of dead cells (PI uptake)” value ([15]; 2 μM) was 6.2% and the “percentage of dead cells (PI uptake)” value ([15]; 5 μM) was 7.0%. For the same compound, the “cell viability in the ten cell lines examined” value [16] was “did not reduce cell viability”, the Kd [17] was at least 5 µM and the logP [18] was 4. The Kd [19] was 6 ± 0.87 µM, the clinical appearance ([20]; 7-day study) was “all animals appeared clinically normal” and the mortality ([20]; 7-day study) was “no mortality”. For the same compound, the “body weight on day 1” value ([20]; day 1) was 17.8 g, the “body weight on day 7” value ([20]; day 7) was 27.0 g and the Kd [21] was 23 ± 2 µM.
